Legend:
[1] = biological target: hDOR (Homo sapiens, UniProt P41143); experiment: [35S]GTPγS binding, G-protein activation; assay type: biochemical; settings: for type of activity at hDOR: 1 μM, no activation; for Emax at 1 µM: hDOR, determined from single-concentration (1 μM) experiments, read-out: Emax (% of vehicle)
[2] = for NorBUP in fetal brains or maternal plasma: 1 or 3 mg/kg/day s.c. minipump, GD 9-20
[3] = 4 mg/kg i.v.; data not shown
[4] = system: rats; experiment: warm water tail withdrawal assay (antinociception); settings: for % MPE (at 0.1 mg/kg): 0.1 mg/kg i.v., mean (95% confidence interval); for ED50: Rattus norvegicus, iv
[5] = biological target: hMOR (Homo sapiens, UniProt P35372); experiment: biochemical; settings: read-out: Emax (% of vehicle)
hMOR, sequence (P35372 whole entry): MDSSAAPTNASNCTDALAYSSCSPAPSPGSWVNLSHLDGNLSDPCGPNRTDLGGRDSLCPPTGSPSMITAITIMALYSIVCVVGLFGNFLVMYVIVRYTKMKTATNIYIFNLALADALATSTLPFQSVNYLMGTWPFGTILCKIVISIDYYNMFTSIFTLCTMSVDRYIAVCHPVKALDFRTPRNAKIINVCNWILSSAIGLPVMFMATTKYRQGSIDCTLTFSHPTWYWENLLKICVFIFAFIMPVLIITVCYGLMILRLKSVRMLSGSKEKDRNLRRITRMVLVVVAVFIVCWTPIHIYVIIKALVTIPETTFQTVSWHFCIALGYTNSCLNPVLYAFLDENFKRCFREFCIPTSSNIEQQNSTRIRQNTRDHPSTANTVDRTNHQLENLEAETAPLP

hDOR, sequence (P41143 whole entry): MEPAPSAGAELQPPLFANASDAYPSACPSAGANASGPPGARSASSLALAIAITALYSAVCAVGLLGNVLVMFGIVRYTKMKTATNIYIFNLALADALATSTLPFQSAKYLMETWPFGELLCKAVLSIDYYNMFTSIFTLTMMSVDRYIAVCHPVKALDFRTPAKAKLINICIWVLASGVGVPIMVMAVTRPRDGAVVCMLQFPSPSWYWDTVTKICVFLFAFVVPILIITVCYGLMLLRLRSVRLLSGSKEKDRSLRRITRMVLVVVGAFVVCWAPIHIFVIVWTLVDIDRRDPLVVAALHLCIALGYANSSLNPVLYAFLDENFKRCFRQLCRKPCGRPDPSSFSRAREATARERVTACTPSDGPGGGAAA

Structure (SMILES)	type of activity at hDOR [1]	Emax at 1 µM [1] [%]	NorBUP in fetal brains or maternal plasma [2]	area under the NorBUP glucuronide curve, BUP versus BUP-D2 group [3]	% MPE (at 0.1 mg/kg) ([4]; 10 minutes)	% MPE (at 0.1 mg/kg) ([4]; 60 minutes)	ED50 ([4]; 10 min) [mg/kg]	ED50 ([4]; 1 h) [mg/kg]	area under the curve vs. BUP ([2]; maternal plasma, data not shown)	Emax [5] [%]
CO[C@@]12CC[C@@]3(C[C@@H]1[C@](C)(O)C(C)(C)C)C1Cc4ccc(O)c5c4[C@@]3(CCN1CC1CC1)[C@H]2O5 [BUP, buprenorphine]	neutral antagonists of hDORs	114	detected no NorBUP	significantly greater	90.1 (68.8-111.4) % MPE	96.8 (83.2-110.5) % MPE	0.025	0.021		
[2H]C([2H])(C1CC1)N1CC[C@]23c4c5ccc(O)c4O[C@H]2[C@@]2(OC)CC[C@@]3(C[C@@H]2[C@](C)(O)C(C)(C)C)C1C5 [BUP-D2, (4aS,6R,7R,7aR,12bS)-3-(cyclopropylmethyl-d2)-6-((S)-2-hydroxy-3,3-dimethylbutan-2-yl)-7-methoxy-1,2,3,4,5,6,7,7a-octahydro-4a,7-ethano-4,12-methanobenzofuro[3,2-e]isoquinolin-9-ol]	neutral antagonists of hDORs	107	detected no NorBUP		84.4 (43.5-125.2) % MPE	97.9 (89.1-106.8) % MPE	0.021	0.018	significantly greater	
C[C@@H](NC(=O)[C@@H](N)Cc1ccc(O)cc1)C(=O)NCC(=O)N(C)[C@@H](Cc1ccccc1)C(=O)NCCO [DAMGO]										308
